Experimental data reported in patent publication US8173704B2, “Difluorophenol derivatives and their use” (Bayer Pharma Aktiengesellschaft, priority 2005, dated 2012).
One block for each molecule: values may come before it.

Assays:
saphenous artery rings = assay: Vasorelaxant effect in vitro (phenylephrine-contracted artery rings); format: cell-based; conditions: rabbit saphenous artery rings, contraction induced by phenylephrine
Procedure: Rabbits are anesthetized and sacrificed by intravenous injection of thiopental sodium (about 50 mg/kg) and exsanguinated. The saphenous artery is removed and divided into rings 3 mm wide. The rings are mounted singly on in each case a pair of triangular hooks open at the end and made of 0.3 mm-thick special wire (Remanium®). Each ring is placed under an initial tension in 5 ml organ baths with Krebs-Henseleit solution which is at 37° C., is gassed with 95% O2/5% CO2 and has the following composition: NaCl 119 mM; KCl 4.8 mM; CaCl2×2H2O 1 mM; MgSO4×7 H2O 1.4 mM; KH2PO4 1.2 mM; NaHCO3 25 mM; glucose 10 mM; bovine serum albumin 0.001%. The force of contraction is detected with Statham UC2 cells, amplified and digitized via A/D converters (DAS-1802 HC, Keithley Instruments, Munich) and recorded in parallel on chart recorders. Contractions are induced by addition of phenylephrine.
After several (generally 4) control cycles, the substance to be investigated is added in each further run in increasing dosage, and the height of the contraction achieved under the influence of the test substance is compared with the height of the contraction reached in the last preceding run. The concentration necessary to reduce the contraction reached in the preceding control by 50% is calculated from this (IC50). The standard application volume is 5 μl. The proportion of DMSO in the bath solution corresponds to 0.1%.

[1] = target: T1, Heme-free sGC (recombinant soluble guanylate cyclase) (Rattus norvegicus, UniProt P20595); assay: Stimulation of recombinant soluble guanylate cyclase (sGC) in vitro, heme-free enzyme; format: biochemical
T1 construct: made in house; host or cells: baculovirus/Sf9 insect cells
T1 sequence (P20595 1-619): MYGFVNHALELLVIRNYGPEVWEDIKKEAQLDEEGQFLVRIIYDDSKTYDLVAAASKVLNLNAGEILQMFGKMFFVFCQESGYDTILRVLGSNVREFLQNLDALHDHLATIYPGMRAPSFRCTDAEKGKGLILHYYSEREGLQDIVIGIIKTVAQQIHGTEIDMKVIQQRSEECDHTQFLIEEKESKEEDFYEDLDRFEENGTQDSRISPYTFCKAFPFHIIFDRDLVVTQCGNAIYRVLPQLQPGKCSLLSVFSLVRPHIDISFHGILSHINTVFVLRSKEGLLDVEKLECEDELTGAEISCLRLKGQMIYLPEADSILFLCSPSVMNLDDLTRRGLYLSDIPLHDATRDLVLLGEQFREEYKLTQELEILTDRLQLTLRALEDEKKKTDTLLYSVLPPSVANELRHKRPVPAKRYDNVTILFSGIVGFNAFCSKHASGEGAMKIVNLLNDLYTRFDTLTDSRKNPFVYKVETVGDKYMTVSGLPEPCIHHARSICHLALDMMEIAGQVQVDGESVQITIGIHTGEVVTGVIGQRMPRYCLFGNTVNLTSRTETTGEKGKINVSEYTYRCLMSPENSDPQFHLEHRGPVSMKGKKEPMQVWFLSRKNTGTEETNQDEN
T1 sequence (P19686 1-690 partner): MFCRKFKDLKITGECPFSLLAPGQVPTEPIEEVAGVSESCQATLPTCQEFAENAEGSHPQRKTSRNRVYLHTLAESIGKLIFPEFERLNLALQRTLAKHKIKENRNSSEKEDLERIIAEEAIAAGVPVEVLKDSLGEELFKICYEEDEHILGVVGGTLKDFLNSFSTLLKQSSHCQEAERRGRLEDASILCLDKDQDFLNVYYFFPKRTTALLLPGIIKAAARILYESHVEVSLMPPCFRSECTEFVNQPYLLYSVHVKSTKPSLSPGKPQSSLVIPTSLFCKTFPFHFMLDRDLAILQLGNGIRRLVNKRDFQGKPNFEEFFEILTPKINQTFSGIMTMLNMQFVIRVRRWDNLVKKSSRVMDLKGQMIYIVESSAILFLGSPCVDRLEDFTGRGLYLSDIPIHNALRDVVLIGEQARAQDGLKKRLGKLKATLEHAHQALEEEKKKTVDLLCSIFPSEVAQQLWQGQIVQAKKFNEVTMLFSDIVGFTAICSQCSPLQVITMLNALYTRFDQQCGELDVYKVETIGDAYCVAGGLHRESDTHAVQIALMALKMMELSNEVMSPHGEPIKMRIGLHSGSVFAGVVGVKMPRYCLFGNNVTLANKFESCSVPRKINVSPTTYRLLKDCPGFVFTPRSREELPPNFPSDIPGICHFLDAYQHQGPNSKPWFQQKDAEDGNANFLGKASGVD
Procedure: Investigations on the stimulation of recombinant soluble guanylate cyclase (sGC) by the compounds according to the invention with and without sodium nitroprusside, and with and without the heme-dependent sGC inhibitor 1H-1,2,4-oxadiazole-(4,3a)-quinoxalin-1-one (ODQ) are carried out by the method described in detail in the following reference: M. Hoenicka, E. M. Becker, H. Apeler, T. Sirichoke, H. Schroeder, R. Gerzer and J.-P. Stasch, “Purified soluble guanylyl cyclase expressed in a baculovirus/Sf9 system: Stimulation by YC-1, nitric oxide, and […]”, J. Mol. Med. 77 (1999), 14-23. The heme-free guanylate cyclase is obtained by adding Tween 20 to the sample buffer (0.5% in the final concentration).
(§1) The activation of sGC by a test substance is reported as n-fold stimulation of the basal activity.

[2] = target: T2, Heme-containing sGC (recombinant soluble guanylate cyclase) (Rattus norvegicus, UniProt P20595); assay: Stimulation of recombinant soluble guanylate cyclase (sGC) in vitro, heme-containing enzyme; format: biochemical
T2 construct: made in house; host or cells: baculovirus/Sf9 insect cells
T2 sequence (P20595 1-619): T1 sequence (P20595 1-619)
T2 sequence (P19686 1-690 partner): T1 sequence (P19686 1-690 partner)
Excerpt: Hoenicka, E. M. Becker, H. Apeler, T. Sirichoke, H. Schroeder, R. Gerzer and J.-P. Stasch, “Purified soluble guanylyl cyclase expressed in a baculovirus/Sf9 system: Stimulation by YC-1, nitric oxide, and carbon oxide”, J. Mol. Med. 77 (1999), 14-23. The heme-free guanylate cyclase is obtained by adding Tween 20 to the sample buffer (0.5% in the final concentration).
as §1

[3] = 0.001 μM Example 13 + 10 μM ODQ

- IC50 (saphenous artery rings; Oryctolagus cuniculus): 0.647 µM
Structure (SMILES): O=C(O)CCCCC(/C=C/c1cc(F)ccc1OCc1ccccc1Cl)Cc1cc(F)c(O)c(F)c1 (single isomer, unassigned) [Example 8, E-8-[2-(2-Chlorobenzyloxy)-5-fluorophenyl]-6-(3,5-difluoro-4-hydroxybenzyl)oct-7-enoic acid]

- IC50 (saphenous artery rings): 0.96 µM
Structure (SMILES): O=C(O)CCCCC(/C=C/c1cc(F)ccc1OCc1ccc(-c2ccc(C(F)(F)F)cc2)cc1)Cc1cc(F)c(O)c(F)c1 (single isomer, unassigned) [Example 4, E-6-(3,5-Difluoro-4-hydroxybenzyl)-8-[5-fluoro-2-(4′-trifluoromethylbiphenyl-4-ylmethoxy)phenyl]oct-7-enoic acid]

- Stimulation (n-fold) of heme-free sGC, Basal ([1]; 0.001 μM Example 13): 4.1 n-fold
- Stimulation (n-fold) of heme-free sGC, +10 μM ODQ [1, 3]: 4.0 n-fold
- Stimulation (n-fold) of heme-free sGC, Basal ([1]; 0.01 μM Example 13): 30.6 n-fold
- Stimulation (n-fold) of heme-free sGC, +10 μM ODQ ([1]; 0.01 μM Example 13 + 10 μM ODQ): 27.1 n-fold
- Stimulation (n-fold) of heme-free sGC, Basal ([1]; 0.1 μM Example 13): 94.4 n-fold
- Stimulation (n-fold) of heme-free sGC, +10 μM ODQ ([1]; 0.1 μM Example 13 + 10 μM ODQ): 88.6 n-fold
- Stimulation (n-fold) of heme-free sGC, Basal ([1]; 1 μM Example 13): 122.8 n-fold
- Stimulation (n-fold) of heme-free sGC, +10 μM ODQ ([1]; 1 μM Example 13 + 10 μM ODQ): 118.5 n-fold
- Stimulation (n-fold) of heme-free sGC, Basal ([1]; 10 μM Example 13): 126.3 n-fold
- Stimulation (n-fold) of heme-free sGC, +10 μM ODQ ([1]; 10 μM Example 13 + 10 μM ODQ): 118.4 n-fold
- IC50 (saphenous artery rings): 0.0245 µM
- Stimulation (n-fold) of heme-containing sGC, Basal ([2]; 0.001 μM Example 13): 1.7 n-fold
- Stimulation (n-fold) of heme-containing sGC, +0.1 μM DEA/NO ([2]; 0.001 μM Example 13 + 0.1 μM DEA/NO): 26.3 n-fold
- Stimulation (n-fold) of heme-containing sGC, +10 μM ODQ [2, 3]: 37.5 n-fold
- Stimulation (n-fold) of heme-containing sGC, Basal ([2]; 0.01 μM Example 13): 6.7 n-fold
- Stimulation (n-fold) of heme-containing sGC, +0.1 μM DEA/NO ([2]; 0.01 μM Example 13 + 0.1 μM DEA/NO): 31.2 n-fold
- Stimulation (n-fold) of heme-containing sGC, +10 μM ODQ ([2]; 0.01 μM Example 13 + 10 μM ODQ): 38.8 n-fold
- Stimulation (n-fold) of heme-containing sGC, Basal ([2]; 0.1 μM Example 13): 19.2 n-fold
- Stimulation (n-fold) of heme-containing sGC, +0.1 μM DEA/NO ([2]; 0.1 μM Example 13 + 0.1 μM DEA/NO): 40.2 n-fold
- Stimulation (n-fold) of heme-containing sGC, +10 μM ODQ ([2]; 0.1 μM Example 13 + 10 μM ODQ): 43.8 n-fold
- Stimulation (n-fold) of heme-containing sGC, Basal ([2]; 1 μM Example 13): 24.2 n-fold
- Stimulation (n-fold) of heme-containing sGC, +0.1 μM DEA/NO ([2]; 1 μM Example 13 + 0.1 μM DEA/NO): 43.2 n-fold
- Stimulation (n-fold) of heme-containing sGC, +10 μM ODQ ([2]; 1 μM Example 13 + 10 μM ODQ): 52.2 n-fold
- Stimulation (n-fold) of heme-containing sGC, Basal ([2]; 10 μM Example 13): 36.2 n-fold
- Stimulation (n-fold) of heme-containing sGC, +0.1 μM DEA/NO ([2]; 10 μM Example 13 + 0.1 μM DEA/NO): 62.0 n-fold
- Stimulation (n-fold) of heme-containing sGC, +10 μM ODQ ([2]; 10 μM Example 13 + 10 μM ODQ): 63.7 n-fold
- Effect of combination with the NO donor DEA/NO on sGC stimulation ([2]; combination with DEA/NO): no synergistic effect
- Effect of the heme-dependent sGC inhibitor ODQ on the sGC activation ([2]; with ODQ, effect is in fact increased): not blocked
Structure (SMILES): CC(C)(C)c1ccc(COc2ccccc2/C=C/C(CCc2ccc(C(=O)O)cc2)Cc2cc(F)c(O)c(F)c2)cc1 (single isomer, unassigned) [Example 13, E4-[5-[2-(4-tert-Butylbenzyloxy)phenyl]-3-(3,5-difluoro-4-hydroxybenzyl)pent-4-enyl]benzoic acid]

- IC50 (saphenous artery rings): 1.22 µM
Structure (SMILES): CC(C)(C)c1ccc(COc2ccccc2/C=C/C(CCc2ccc(C(=O)O)cc2)Cc2cc(F)c(O)c(F)c2)cc1 (single isomer, unassigned) [Example 14, E-4-[5-[2-(4-tert-Butylbenzyloxy)phenyl]-3-(3,5-difluoro-4-hydroxybenzyl)pent-4-enyl]benzoic acid]

- IC50 (saphenous artery rings): 2.6 µM
Structure (SMILES): O=C(O)CCCCC(/C=C\c1cc(F)ccc1OCc1ccc(-c2ccc(C(F)(F)F)cc2)cc1)Cc1cc(F)c(O)c(F)c1 (single isomer, unassigned) [Example 7, Z-6-(3,5-Difluoro-4-hydroxybenzyl)-8-[5-fluoro-2-(4′-trifluoromethylbiphenyl-4-ylmethoxy)phenyl]oct-7-enoic acid]

- IC50 (saphenous artery rings; Oryctolagus cuniculus): 0.043 µM
Structure (SMILES): O=C(O)CCCCN(CCc1cc(F)ccc1OCc1ccc(-c2ccc(C(F)(F)F)cc2)cc1)Cc1cc(F)c(O)c(F)c1 [Example 18, 5-{(3,5-Difluoro-4-hydroxybenzyl)-[2-(5-fluoro-2-{[4′-(trifluoromethyl)biphenyl-4-yl]methoxy}phenyl)ethyl]amino}pentanoic acid]

- IC50 (saphenous artery rings; Oryctolagus cuniculus): 2.7 µM
Structure (SMILES): O=C(O)CCCCC(/C=C\c1cc(F)ccc1OCc1ccc(-c2ccc(C(F)(F)F)cc2)cc1)Cc1cc(F)c(O)c(F)c1 (single isomer, unassigned) [Example 6, Z-6-(3,5-Difluoro-4-hydroxybenzyl)-8-[5-fluoro-2-(4′-trifluoromethylbiphenyl-4-ylmethoxy)phenyl]oct-7-enoic acid]

- IC50 (saphenous artery rings): 0.3 µM
Structure (SMILES): O=C(O)CCCCC(/C=C/c1cc(F)ccc1OCc1ccc(-c2ccc(C(F)(F)F)cc2)cc1)Cc1cc(F)c(O)c(F)c1 (single isomer, unassigned) [Example 5, E-6-(3,5-Difluoro-4-hydroxybenzyl)-8-[5-fluoro-2-(4′-trifluoromethylbiphenyl-4-ylmethoxy)phenyl]oct-7-enoic acid]
